These results are taken from paper PMC9782470, “Clickable C-Glycosyl Scaffold for the Development of a Dual Fluorescent and [^18F]fluorinated Cyanine-Containing Probe and Preliminary In Vitro/Vivo Evaluation by Fluorescence Imaging” (Pharmaceuticals, 2022).

The target of one data set is T1, αvβ3 integrin (Homo sapiens, UniProt P05106+P06756).
T1 construct: purchased Bio-techne, Lille, France
Put plainly: Integrin αvβ3 solid-phase binding assay (competition with coated vitronectin). Particulars: coated human vitronectin 1 µg/mL, integrin αvβ3 2 µg/mL, compounds 1.6 nM–20 µM, 1 h room temperature, OD 450 nm, 3 independent series in duplicate, ± SD in Figure 2, read-out: IC50, binding of αvβ3 integrin onto vitronectin. How it is done: The affinity of the compounds for integrin protein was evaluated in terms of the half maximal inhibitory concentration (IC50 values) using a solid-phase assay, as previously described by Tobias G. Kapp et al.. Briefly, the surface of Maxisorp microplates (NUNC, ThermoFicher Scientific, Paris, France) was coated with 1 µg/mL human vitronectin (Bio-techne, Lille, France) overnight at +4 °C. The non-specific sites were blocked with a TSB buffer (20 mM Tris-HCl, 150 mM NaCl, 1 mM CaCl2, 1 mM MgCl2, 1 mM MnCl2, pH 7.5, 1% BSA) (Sigma-Aldrich, Saint-Quentin-Fallavier, France) for 1 h at 37 °C. […] After 1 h incubation at room temperature, the plates were washed, and the amount of bound integrin was stained by incubation with 2 µg/mL of mouse anti-human CD51/61 (BD Pharmingen, Paris, France) and 1 µg/mL of anti-mouse IgG horseradish peroxidase conjugate antibody (Bio-techne, France). The enzymatic reaction was carried out in the dark by the addition of the enzyme substrate (Bio-techne, France) and stopped after 10 min by the addition of H2SO4 (Stop Solution, Bio-techne, France). The optical densities were measured at 450 nm. The values were blank subtracted, and the results were expressed as relative absorbance percentage in comparison to the wells containing only integrin αvβ3.
Affinities were estimated from 3 independent series performed in duplicate as IC50 values (i.e., the concentration of the compounds that displaced 50% of integrin binding calculated using one-site fit log-IC50 non-linear analysis regression using the GraphPad Prism 6 software (v 6.05, USA)).
Figure 2 Solid-phase binding assay.

For another data set, the system named is U-87 MG cells. The data set can be described thus: Cellular uptake, quantification of Cy5 incorporation. Particulars: 24 h of incubation; Cy5 fluorescence of DMSO cell lysate (λex 645, λem 680 nm), calibration curve of each compound; n = 3. The format is cell-based, human. The protocol:
Cellular uptake was evaluated using a confocal microscopy on U-87 MG spheroids after 1, 4, and 24 h of exposure with conjugates 23 and 24 and c(RGDfK)-Cy5 (25) at 1 µM. The fluorescence signal appeared to be stable over time and the distribution of the compounds was homogeneous over all cells and throughout the spheroids (Figure 3A). These three compounds were localized rapidly in the cell cytoplasm due to receptor internalization after ligand binding. As expected from photophysical properties, the fluorescence signal was higher for compound 24 compared to 23. […] The amount of compounds seemed to decrease slightly at 4 h but stayed relatively stable until 24 h and represented 25.8, 14.7, and 28.6 pmoles/10^6 cells, respectively, for compounds 23, 24 and 25. […]
U-87 MG cells were seeded in 12 multi-well plates at 10 × 10^4 cells/cm^2 and cultivated for 48 h. […] The fluorescence signals of Cy5 in the samples were measured in duplicate at an excitation wavelength of 645/9 nm and an emission wavelength of 680/20 nm (Tecan Infinite M200 Pro spectrofluorometer, Tecan, Männedorf, Switzerland). The fluorescence signals of known concentrations of Cy5-conjugates diluted in DMSO were used to draw a standard calibration curve. The concentration of Cy5 present in the samples (nM) was determined from the linear regression analysis of the standard calibration curve (Equation (1)). […] The results of the cellular uptake were expressed as the concentration of Cy5 (nM) incorporated per one million of cells (Equation (2)). […] (nM) = f (Fluorescence Intensity)(1) [Cy5] […]
Figure 3 Cellular uptake of fluorescent conjugates 23 and 24. […] The intrinsic fluorescence of the compounds corresponds to Cyanine 5 (red fluorescence, λex 631/28 nm, λem 692/40 nm). […] (B) Quantification of Cy5 incorporation by U-87 MG cells at 1, 4, and 24 h of incubation. The amount of each compound was calculated using the fluorescence of Cy5 extrapolated from the calibration curves of each compound and normalized to 10^6 cells. n = 3.

The next data set deals with ectopic U-87 MG tumors. Format: in vivo, female athymic nude mice. How it is done: (§1) In order to evaluate the in vivo biodistribution and tumor uptake of compound 24, which has the best photophysical and solubility properties in comparison to compound 23, mice bearing ectopic or orthotopic brain tumors were imaged in NIRF using a fluorescent small animal imager. […] Animal experiments were performed in accordance with the protocols approved by the French Ministry of Research after a review by the local animal protection and use committee (APAFIS# 30902). For ectopic tumor biodistribution, a U-87 MG tumor model was established by subcutaneous injection of U-87 MG cells (2 × 10^6 in 100 µL of 5% glucose solution) into the front right flank of female athymic nude mice (Charles Rivers, Wilmington, MA, USA). The mice were subjected to imaging studies when the tumor volume reached 500 mm^3 (3–4 wk after inoculation) at 1, 4, 6, and 24 h after the intravenous administration of the compounds 24 and 25 at 0.5 nmoles in 100 µL of water for injections mixed with ethanol (20% EtOH/80% water). For brain tumor imaging, U-87 MG spheroids of approximatively 500 µm diameter were implanted in the cortex of the right hemisphere and imaged 24 h after the administration of 0.5 nmoles of the compound 24 or 25. In the same manner, major organs were harvested and subjected to small animal NIRF imaging (Fluorvivo, Indec Biosystem, Los Altos, CA, USA). A customized filter set (excitation, 510–550 nm; emission, 630–690 nm) was used for data acquisition. All fluorescence images were acquired with a 1-s exposure. The fluorescence intensity of each tissue was measured after subtraction of the background signal from an ROI of the same size and shape drawn over an area without any tissue using imageJ. Figure 4 Biodistribution of compounds 24 and 25 in tumors and organs. (A) Kinetic distribution of compounds 24 and 25 in ectopic U-87 MG tumors at 1, 4, 6, and 24 h (representative images of the whole mice with the solid arrows showing the ectopic tumors at 24 h). (B) Biodistribution of the compounds in major organs at 24 h after their administration. […] An average of ratio uptake was calculated. […]

Data set [1] relates to orthotopic U-87 MG brain tumor. The format is in vivo, female athymic nude mice. Particulars: 24 h after intravenous administration of 0.5 nmoles; NIRF imaging; average of ratio uptake. The protocol: as §1
Data set [2] in a line: Absorption and fluorescence measurements. Format: physicochemical. The note with it: for relative fluorescence quantum yield Φfluo: PBS pH 7.4, relative to commercial Cy5.Cl, λex = 640 nm, absorbance lower than 0.1; for Stokes shift Δs fluo / λem / λabs: aqueous PBS buffer 0.01 M, pH 7.4, T = 298 K; for λabs: diluted solution (µM). How it is done: Photophysical properties (absorption, excitation, emission, and relative fluorescence quantum yield) of compounds 23 and 24 were measured in an aqueous PBS buffer solution (pH = 7.4, T = 298 K) and compared to the commercially available Cy5 to detect any potential degradation that could occur during the synthesis and purification steps. […] (λabs/λem = 648/662 nm, Δs fluo = 326 cm^−1 for 23, λabs/λem = 644/658 nm, Δs fluo = 330 cm^−1 for 24).
Absorption spectra were recorded in diluted solution (µM) in an aqueous PBS buffer (0.01 M, pH 7.4). Fluorescence quantum yields Φfluo were measured in diluted solutions with an absorbance lower than 0.1 using the following equation: ϕfluo, x=ϕfluo,ref(Gradx/Gradref)(nx2/nref2) where Φfluo is the fluorescence quantum yield; Grad is the gradient from the plot of integrated fluorescence intensity vs. absorbance; n the refractive index of the solvent; and the subscripts x and ref denote sample and reference. The fluorescence quantum yields of 23 and 24 were measured relative to the commercial Cy5.Cl in PBS for which Φfluo,ref = 0.13 [36]. The excitation of the reference and sample compounds was performed at the same wavelength (λex = 640 nm).

For data set [3] the following is noted: cited from earlier work. How it is done:
Photophysical properties (absorption, excitation, emission, and relative fluorescence quantum yield) of compounds 23 and 24 were measured in an aqueous PBS buffer solution (pH = 7.4, T = 298 K) and compared to the commercially available Cy5 to detect any potential degradation that could occur during the synthesis and purification steps. […] (λabs/λem = 648/662 nm, Δs fluo = 326 cm^−1 for 23, λabs/λem = 644/658 nm, Δs fluo = 330 cm^−1 for 24). Conjugation of the ... || Absorption spectra were recorded in diluted solution (µM) in an aqueous PBS buffer (0.01 M, pH 7.4). Fluorescence quantum yields Φfluo were measured in diluted solutions with an absorbance lower than 0.1 using the following equation: ϕfluo, x=ϕfluo,ref(Gradx/Gradref)(nx2/nref2) where Φfluo is the fluorescence quantum yield; Grad is the gradient from the plot of integrated fluorescence intensity vs. absorbance; n the refractive index of the solvent; and the subscripts x and ref denote sample and reference. The fluorescence quantum yields of 23 and 24 were measured relative to the commercial Cy5 ...

The nature of data set [4]: Solubility in aqueous solution. The format is physicochemical. The note with it: result in words.

A word on the IC50: it is the concentration that gives 50% inhibition.

For `CN1C(=CC=CC=CC2=[N+](CCCCCC(=O)NCCCC[C@@H]3NC(=O)[C@@H](Cc4ccccc4)NC(=O)[C@H](CC(=O)O)NC(=O)CNC(=O)[C@H](CCCNC(=N)N)NC3=O)c3ccccc3C2(C)C)C(C)(C)c2ccccc21` [Compound 25], the IC50 on αvβ3 integrin turned out to be 8540 nM. In addition, in the data set with U-87 MG cells, the “amount of compound incorporated by U-87 MG cells” value (shortened to “amount of compound incorporated”) is given as 28.6 pmoles/10^6 cells.

On to `CN1\C(=C/C=C/C=C/C2=[N+](CCCCCC(=O)NCCCn3cc(COCC[C@H]4O[C@H](CF)[C@@H](OCc5cn(CCOCCOCCOCCOCCC(=O)NCCCC[C@@H]6NC(=O)[C@@H](Cc7ccccc7)NC(=O)[C@H](CC(=O)O)NC(=O)CNC(=O)[C@H](CCCNC(=N)N)NC6=O)nn5)[C@H]4OCc4cn(CCOCCOCCOCCOCCC(=O)NCCCC[C@@H]5NC(=O)[C@@H](Cc6ccccc6)NC(=O)[C@H](CC(=O)O)NC(=O)CNC(=O)[C@H](CCCNC(=N)N)NC5=O)nn4)nn3)c3ccccc3C2(C)C)C(C)(C)c2ccccc21` [Compound 24], for which, at αvβ3 integrin, the concentration for half-maximal inhibition (IC50) is 16 nM. The “amount of compound incorporated” value with U-87 MG cells is 14.7 pmoles/10^6 cells. In the data set with ectopic U-87 MG tumors (24 h after intravenous administration of 0.5 nmoles, NIRF imaging, average of ratio uptake), the “ratio of fluorescence uptake, ectopic tumor to healthy brain” value is given as 100 fold. For the same compound, the route of elimination result in the data set on ectopic U-87 MG tumors (mouse, in vivo) was “urinary tract and liver metabolism”. Also, in data set [1], the “ratio of fluorescence uptake, orthotopic brain tumor to healthy brain” value turned out to be 40 fold. Moreover, in data set [2], the “relative fluorescence quantum yield Φfluo” value is reported as 14%, the “Stokes shift Δs fluo” value came to 330 cm⁻¹, the λem worked out at 658 nm and the λabs turned out to be 644 nm.

`CN1/C(=C/C=C/C=C/C2=[N+](CCCCCC(=O)O)c3ccccc3C2(C)C)C(C)(C)c2ccccc21` [Cy5]: the “fluorescence quantum yield Φfluo of the reference” value in data set [3] (PBS) was 13%. In addition, the “fluorescence quantum yield Φfluo,ref” value in data set [3] (in PBS, as fraction) was 0.13.

`CN1\C(=C/C=C/C=C/C2=[N+](CCCCCC(=O)NCCCn3cc(COCC[C@H]4O[C@H](CF)[C@@H](OCc5cn(CCCCCC(=O)NCCCC[C@@H]6NC(=O)[C@@H](Cc7ccccc7)NC(=O)[C@H](CC(=O)O)NC(=O)CNC(=O)[C@H](CCCNC(=N)N)NC6=O)nn5)[C@H]4OCc4cn(CCCCCC(=O)NCCCC[C@@H]5NC(=O)[C@@H](Cc6ccccc6)NC(=O)[C@H](CC(=O)O)NC(=O)CNC(=O)[C@H](CCCNC(=N)N)NC5=O)nn4)nn3)c3ccccc3C2(C)C)C(C)(C)c2ccccc21` [Compound 23]: at αvβ3 integrin, the IC50 was determined as 10 nM. Besides, in the data set on U-87 MG cells, the “amount of compound incorporated” value was found to be 25.8 pmoles/10^6 cells. Further, in data set [2], the “relative fluorescence quantum yield Φfluo” value was determined as 8%, the “Stokes shift Δs fluo” value amounted to 326 cm⁻¹, the λem was 662 nm and the λabs is 648 nm. The “solubility in aqueous solution” value in data set [4] is reported as “poor solubility”.
